Source: article PMC11831560, “Development of the Pyrido[2,3-d]pyrimidin-7(8H)-one Scaffold toward Potent and Selective NUAK1 Inhibitors” (ACS Medicinal Chemistry Letters, 2025)
Several values for one entry are separate records, joined by “and”; a condition that tells them apart may be missing. Equal entries are not always repeated.

What was measured:
MARK3 = molecular target: T1, MARK3 (Homo sapiens, UniProt P27448); assay: ADP-Glo biochemical assay MARK3; settings: for MARK3 pIC50 / IC50: ADP-Glo assay; for IC50: read-out: MARK3 pIC50 (converted)
T1 construct: purchased MRC PPU
Experimental: (§1) Biological experimental procedures
(§2) ADP-Glo biochemical assays
(§3) Protein kinase activity in the presence of inhibitor compounds was determined by ADP-Glo assay (Promega), as previously described.1,2 Compounds were serialised using a Labcyte Echo 520 and transferred to 384 well plates (Greiner 784201) followed by the addition 5 µL of substrate containing peptide and ATP at Km in buffer (see Table S6). 5 µL of purified protein was added and the plate was incubated for 60 minutes at room temperature (ng/well; see Table S6). 3 µL of assay mixture was transferred using an Integra Viaflo384 into a white low volume plate (Greiner 781904) prior to the addition of 3 µL of ADP-Glo Reagent™ for a further 40 minute incubation. After incubation with 6 µL of Kinase Detection Reagent for 30 minutes, plate luminescence was read (Pherastar FSX, BMG […]
(§4) 30 mM HEPES pH7.4, 3 mM MgCl2, 3 mM MnCl2, 1.2 mM DTT, 0.01% CHAPS
(§5) Table S6: Conditions for protein kinase ADP-Glo assays
(§6) ATP AT Peptide Peptide Enzyme Enzyme Assay Buffe Min.
(§7) Protein conc. P Peptide name conc. supplier amount supplier vol. r na […]
(§8) NUAK1 µM µM Sakamototide 50 µM Merck 6.7 ng PPU 10 µl A 6
(§9) A µM µM Sakamototide 100 µM Merck 1 ng PPU 10 µl B 2 […]
(§10) aMin. n: Minimum number of technical replicates per compound

NUAK1 [1] = molecular target: T2, NUAK1 (Homo sapiens, UniProt O60285); assay: ADP-Glo biochemical assay NUAK1; parameters: purchased MRC PPU; settings: ADP-Glo assay; for IC50: read-out: NUAK1 pIC50 (converted)
T2 sequence (O60285 1-661): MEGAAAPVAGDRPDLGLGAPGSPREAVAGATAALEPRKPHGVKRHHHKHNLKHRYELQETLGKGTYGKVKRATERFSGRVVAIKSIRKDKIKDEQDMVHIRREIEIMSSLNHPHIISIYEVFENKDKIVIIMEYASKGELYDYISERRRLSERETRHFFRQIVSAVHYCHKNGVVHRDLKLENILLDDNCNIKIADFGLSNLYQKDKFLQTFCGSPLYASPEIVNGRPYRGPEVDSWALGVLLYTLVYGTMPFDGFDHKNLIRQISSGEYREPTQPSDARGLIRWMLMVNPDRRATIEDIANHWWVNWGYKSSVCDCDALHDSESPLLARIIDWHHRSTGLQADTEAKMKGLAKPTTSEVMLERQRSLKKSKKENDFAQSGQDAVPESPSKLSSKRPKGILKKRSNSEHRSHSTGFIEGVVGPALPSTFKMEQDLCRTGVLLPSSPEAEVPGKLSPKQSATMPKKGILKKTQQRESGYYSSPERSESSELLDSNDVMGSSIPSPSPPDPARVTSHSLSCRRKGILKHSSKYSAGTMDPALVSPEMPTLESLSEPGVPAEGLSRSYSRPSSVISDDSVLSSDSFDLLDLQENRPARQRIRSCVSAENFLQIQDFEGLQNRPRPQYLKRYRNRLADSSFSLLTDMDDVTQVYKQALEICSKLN
Experimental: as §1, §2, §3, §4, §5, §6, §7, §8, §9, §10

[2] = Microsomal stability, mouse; type: in vitro ADME; settings: mouse liver microsomes; read-out: MLM t1/2
Experimental: All single point assay determinations carried out in duplicate.
ADMET and PK experimental methods
Microsomal stability: analysis was performed by Cyprotex Discovery. […]

NUAK1 [3] = molecular target: T2, NUAK1; assay: NanoBRET target engagement assay, HEK293 cells; settings: cell-based NanoBRET target engagement assay
Experimental: NanoBRET® target engagement assay
The binding of compounds to NUAK1 in intact cells was assessed using an NanoBRET® TE Intracellular Kinase Assay (Promega N2501). HEK293 cells transiently transfected with NanoLuc®- NUAK1 Fusion Vector (Promega NV1831) were incubated with 10 nL K5 tracer (provided in the kit, Promega N2501) and 40 nL of the test compounds in 100% DMSO in a white low volume non-binding 384 assay plate (Grenier Bio One 784904) for 90 min at 37 °C. After incubation, followed by cooling for 15 min at room temperature, 4 µL of the Intracellular TE Nano-Glo ® Substrate/Inhibitor (Promega N2160) was added to each well. The plate was read using a Pherastar FSX plate reader (BMG Labtech).
Minimum number of 2 technical replicates per compound.
Activity pIC50 values and standard error of the mean (SEM) were estimated using a 4-parameter fit (Dotmatics). The SEM for all reported data was 0.2 or lower. See Experimental Procedures for minimum number of replicates per compound. Each experiment included a Standard compound whose pIC50 value was compared to a quality control chart. If the Standard pIC50 value fell outside the range of pIC50 +/-3 standard deviation, then the experiment was invalidated. […]

AMPKA α1β2γ1 [4] = molecular target: T3, AMPKA α1β2γ1 (Homo sapiens, UniProt Q13131); assay: ADP-Glo biochemical assay AMPKA; settings: AMPKA IC50/NUAK1 IC50
T3 construct: purchased MRC PPU
Experimental: as §1, §2, §3, §4, §5, §6, §7, §8, §9, §10

AMPKA α1β2γ1 [5] = molecular target: T4, AMPKA α1β2γ1 (Homo sapiens, UniProt O43741+P54619+Q13131); assay: ADP-Glo biochemical assay AMPKA; settings: ADP-Glo assay; read-out: AMPKA pIC50 (converted)
T4 construct: purchased MRC PPU
Experimental: as §1, §2, §3, §4, §5, §6, §7, §8, §9, §10

T1 sequence (P27448 whole entry): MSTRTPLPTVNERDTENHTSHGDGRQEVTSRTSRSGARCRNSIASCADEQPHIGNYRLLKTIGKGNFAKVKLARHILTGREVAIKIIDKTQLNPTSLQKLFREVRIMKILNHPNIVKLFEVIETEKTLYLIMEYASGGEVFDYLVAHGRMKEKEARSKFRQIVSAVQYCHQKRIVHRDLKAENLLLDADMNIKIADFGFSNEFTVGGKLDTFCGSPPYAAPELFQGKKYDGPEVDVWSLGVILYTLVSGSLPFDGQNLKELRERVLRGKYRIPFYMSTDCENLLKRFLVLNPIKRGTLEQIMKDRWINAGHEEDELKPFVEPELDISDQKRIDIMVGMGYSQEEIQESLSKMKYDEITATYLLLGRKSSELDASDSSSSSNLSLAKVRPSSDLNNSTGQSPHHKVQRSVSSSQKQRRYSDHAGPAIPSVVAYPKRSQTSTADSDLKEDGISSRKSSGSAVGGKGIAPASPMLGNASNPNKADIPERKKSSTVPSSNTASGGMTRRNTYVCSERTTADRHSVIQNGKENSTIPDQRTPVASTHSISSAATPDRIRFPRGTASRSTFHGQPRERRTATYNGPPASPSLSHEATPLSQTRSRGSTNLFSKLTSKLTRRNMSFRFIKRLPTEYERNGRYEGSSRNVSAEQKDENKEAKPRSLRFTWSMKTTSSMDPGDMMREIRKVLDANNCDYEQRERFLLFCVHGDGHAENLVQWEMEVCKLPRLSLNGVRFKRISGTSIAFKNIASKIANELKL
T4 sequence (Q13131 11-559 limits assumed): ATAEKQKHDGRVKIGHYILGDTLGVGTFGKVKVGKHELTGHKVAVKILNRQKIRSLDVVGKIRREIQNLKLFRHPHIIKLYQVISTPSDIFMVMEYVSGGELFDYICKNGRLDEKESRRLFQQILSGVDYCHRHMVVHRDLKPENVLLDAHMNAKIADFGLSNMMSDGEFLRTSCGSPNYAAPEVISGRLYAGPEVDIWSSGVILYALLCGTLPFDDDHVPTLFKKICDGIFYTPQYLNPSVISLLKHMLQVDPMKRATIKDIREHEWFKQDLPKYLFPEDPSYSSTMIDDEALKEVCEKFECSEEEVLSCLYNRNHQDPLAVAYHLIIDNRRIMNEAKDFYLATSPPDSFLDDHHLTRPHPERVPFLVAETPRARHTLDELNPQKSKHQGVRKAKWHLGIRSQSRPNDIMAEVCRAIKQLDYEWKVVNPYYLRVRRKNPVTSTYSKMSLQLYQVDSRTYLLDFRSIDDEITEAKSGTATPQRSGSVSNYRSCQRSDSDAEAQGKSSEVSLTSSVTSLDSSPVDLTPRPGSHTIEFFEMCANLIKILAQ
T4 sequence (O43741 whole entry partner): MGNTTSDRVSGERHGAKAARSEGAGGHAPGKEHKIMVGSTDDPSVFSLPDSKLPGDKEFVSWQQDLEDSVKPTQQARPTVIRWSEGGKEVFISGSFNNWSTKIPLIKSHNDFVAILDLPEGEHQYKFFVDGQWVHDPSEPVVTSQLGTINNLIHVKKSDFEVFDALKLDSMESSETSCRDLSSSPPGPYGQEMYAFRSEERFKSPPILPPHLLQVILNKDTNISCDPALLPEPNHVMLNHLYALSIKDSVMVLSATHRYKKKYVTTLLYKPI
T4 sequence (P54619 whole entry partner): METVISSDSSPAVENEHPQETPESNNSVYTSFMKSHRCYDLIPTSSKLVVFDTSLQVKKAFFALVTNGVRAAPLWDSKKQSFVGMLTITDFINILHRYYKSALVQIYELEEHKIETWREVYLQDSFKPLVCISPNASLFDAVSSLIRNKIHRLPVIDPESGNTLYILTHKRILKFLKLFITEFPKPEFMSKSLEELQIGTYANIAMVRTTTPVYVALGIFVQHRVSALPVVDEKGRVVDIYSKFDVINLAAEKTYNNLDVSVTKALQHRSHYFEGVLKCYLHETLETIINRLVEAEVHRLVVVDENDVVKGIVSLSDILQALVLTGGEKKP
T3 sequence (Q13131 11-559 limits assumed): as the sequence (Q13131 11-559 limits assumed) above
T3 sequence (O43741 whole entry partner): as the sequence (O43741 whole entry partner) above
T3 sequence (P54619 whole entry partner): as the sequence (P54619 whole entry partner) above

Row | SMILES | MARK3 pIC50 (MARK3) | MARK3 Fold selectivity IC50/NUAK1 IC50 (MARK3) [fold] | NUAK1 pIC50 (NUAK1 [1]) | IC50 (MARK3) [µM] | IC50 (NUAK1 [1]) [µM] | half-life at 1 µM [2] [min] | NUAK1 cell TE pIC50 (NUAK1 [3]) | IC50 (NUAK1 [3]; read-out: NUAK1 cell TE pIC50 (converted)) [µM] | AMPKA Fold selectivity IC50/NUAK1 IC50 (AMPKA α1β2γ1 [4]) [fold] | IC50 (AMPKA α1β2γ1 [5]) [µM]
1 | COc1cc(N2CCN(C)CC2)ccc1Nc1ncc2c(C)cc(=O)n(C3CCCC3)c2n1 [Compound 12] | < 4.6 | > 89 | 6.6 | – | – | – | – | – | – | –
2 | Cc1cc(=O)n(C2CCCC2)c2nc(Nc3ccc(N4CCNCC4)cn3)ncc12 [Compound 13] | – | > 11 | – | > 3.16 | 0.316 | – | – | – | – | –
3 | COc1cc(Nc2ncc3c(n2)N(C2CCCC2)C(=O)C(C)(C)O3)cc(OC)c1OC [Compound 19] | 5.6 | 57 | 7.4 | – | – | 1.4 | inactive | > 25.1 | – | –
4 | CN1C2CC1CN(c1ccc(Nc3ncc4ccn(C5COC5)c4n3)cc1)C2 [Compound 31] | 5.4 | 263 | 7.8 | – | – | – | – | – | – | –
5 | COc1cc(Nc2ncc3c(C)cc(=O)n(C4CCCC4)c3n2)cc(OC)c1OC [Compound 15] | 5.8 | 288 | 8.21 and 8.2 | – | – | – | 6.6 | – | > 12000 | > 75.9
6 | COc1cc(Nc2ncc3cc(C#N)c(=O)n(C4CCCC4)c3n2)cc(OC)c1 [Compound 17] | < 4.6 | > 676 | 7.4 | – | – | – | <4.6 | – | – | –
7 | CC(=O)c1c(C)c2cnc(Nc3ccc(N4CCNCC4)cn3)nc2n(C2CCCC2)c1=O [Compound 14, Palbociclib, reference compound] | – | – | – | – | 20 | – | – | – | – | –
8 | COCCn1c(=O)cc(C)c2cnc(Nc3ccc(N4CC5CC(C4)N5C)cc3)nc21 [Compound 21] | 5.2 | 35 | 6.7 | – | – | – | – | – | – | –
9 | CN1CCN(c2ccc(Nc3ncc4c(n3)N(C3CCCC3)C(=O)C(C)(C)O4)cc2)CC1 [Compound 6] | 5.9 | 8 | 6.8 | – | – | – | <4.6 | – | – | –
10 | CN1C2CC1CN(c1ccc(Nc3ncc4ccn(C5CCOC5)c4n3)cc1)C2 (centres unmarked) [Compound 30] | – | 388 | – | 6.31 | 0.0158 | – | – | – | – | –
11 | CN1C2CC1CN(c1ccc(Nc3ncc4ccn(CC5CCOC5)c4n3)cc1)C2 (centres unmarked) [Compound 29] | 5.3 | 641 | 8.1 | – | – | 12.8 | 6.4 | – | 708 | 5.62
12 | COc1nn(C)cc1Nc1ncc2c(C)cc(=O)n(C3CCCC3)c2n1 [Compound 18] | 4.9 | 40 | 6.5 | – | – | – | – | – | – | –
13 | Cc1nc(Nc2cnn(C3CCNCC3)c2)nc2c1N(C)C(=O)c1cc3ccccc3cc1N2C [Compound 2, HTH-01-015, reference compound] | – | – | – | – | – | – | < 4.3 | – | – | –
14 | Cc1cc(=O)n(CC(O)CO)c2nc(Nc3ccc(N4CC5CC(C4)N5C)cc3)ncc12 (centres unmarked) [Compound 22] | 5.7 | 20 | 7.0 | – | – | – | – | – | – | –
